Assays:
[1] = tested on: CNV-G gectosome cell entry; assay type: cell-based, human; conditions: read-out: IC50, CNV-G gectosome inhibition
[2] = tested on: VSV-G gectosome uptake, 293ColorSwitch cells; assay type: cell-based; conditions: Cre cargo
[3] = tested on: CNV-G gectosome uptake, 293ColorSwitch cells; assay type: cell-based
[4] = molecular target: BlaM-Vpr-GFP1-10; assay: cell-based or functional assay
[5] = tested on: CNV-G pseudotyped lentiviral infection; assay type: cell-based

`COc1ccc2c(c1)CC[C@@H]1[C@@H]2CC[C@]2(C)[C@@H](NCCCCCCN3C(=O)C=CC3=O)CC[C@@H]12` [U-73122] gave an IC50 [1] of 3030 nM.

For `CCCCCCCCCCCCCCCCOP(=O)([O-])OCC[N+](C)(C)C` [Milterfosine], the “inhibition of VSV-G gectosome uptake” value [2] was “NOT VSV-G gectosome uptake” and the “inhibition of CNV-G gectosome uptake” value [3] was “specifically inhibit”.

Compound CNV-G-EGFP (from UniProt P13180 23-530) has an efficiency of cargo transfer against the CNV-G-GFP11 and BlaM-GFP1-10 pair [4] of 100 fold less.

`C/C1=C/C(=O)O[C@@H]2C[C@@H](CC[C@H](C)/C=C\CC1)O[C@@](O)([C@@H]1CSC(=O)N1)C2` [Latrunculin B] was tested, and the “effect on CNV-G pseudotyped lentiviral infection” value [5] was “effect of Latrunculin B on CNV-G” and the IC50 [1] was 1960 nM.
